Earlier results in patent publication US11529387B2, “Nutritional supplements and methods of nutritional supplementation affecting global mood state” (Amare Global, priority 2019, dated 2022).

Legend:
[1] = runners, submaximal running intensity, week 8 post-supplementation vs pre-supplementation and vs placebo, p<0.05

Q: Which “Global Mood State score” value (8 weeks post-supplementation, lower score = more positive mood) does the source give for `CC1=C(/C=C/C(C)=C/C=C/C(C)=C/C=C/C=C(C)/C=C/C=C(C)/C=C/C2=C(C)C(=O)[C@@H](O)CC2(C)C)C(C)(C)C[C@H](O)C1=O` [NAX, astaxanthin] here?
A: The value was 127+20.

Q: And the “Global Mood change” value (8 weeks post-supplementation, lower score = more positive mood, p<0.05)?
A: Its value is −11%.

Q: What about the Anger sub-scale change (baseline to week 8, NS) of the same compound?
A: The Anger sub-scale change was −12%.

Q: And the Confusion sub-scale change (baseline to week 8, NS)?
A: Its Confusion sub-scale change is −28%.

Q: What about the Tension sub-scale change (baseline to week 8, NS) of the same compound?
A: Its Tension sub-scale change is −20%.

Q: And the Vigor sub-scale change (baseline to week 8, NS)?
A: Its Vigor sub-scale change is “+5%”.

Q: What about the Depression sub-scale change (baseline to week 8, p<0.05) of the same compound?
A: Its Depression sub-scale change is −57%.

Q: And the Fatigue sub-scale change (baseline to week 8, p<0.05)?
A: The Fatigue sub-scale change was −36%.

Q: And the “heart rate (HR) at AT, anaerobic threshold” value [1]?
A: Its value is “significantly lower heart rate”.

Q: And the “heart rate (HR) at AeT, aerobic threshold” value [1]?
A: Its value is “significantly lower heart rate”.
